Oligonucleotides are written 5' to 3', each unit as a sugar letter and its base; * is a phosphorothioate linkage, no mark a phosphodiester; rarer units and linkages stand in square brackets, end groups in braces. Plain capitals give the bases only. d = 2'-deoxy (DNA)

Consider seven substances from publication doi:10.1101/2023.07.11.548539v1, “A side-by-side comparison of peptide-delivered antisense antibiotics employing different nucleotide mimics” (bioRxiv, 2023).

The first series has as its system Salmonella periplasm. Put plainly: MALDI-TOF analysis of ASO-peptide conjugate uptake. Format: cell-based. Also noted: key: -: Effect strength is represented by additional (+) signs.; Effect strength is represented by additional (+) signs.; ++: Effect strength is represented by additional (+) signs.; +++: Effect strength is represented by additional (+) signs. Particulars: summary grade; ASO conjugated to the carrier peptide. The protocol: The experiments were performed by modifying previously published protocols ([29]). From an overnight culture of Salmonella, a second culture was inoculated (1:100) and grown to OD600 of 0.5 (corresponding to ∼2×10^8 cfu/mL). These bacterial cells was washed twice in MHB and resuspended in 95 µl of MHB with an additional incubation at 37°C for 5-10 min. Sterile ASO-peptide conjugates were prepared at concentrations of 200 µM. 5 µl of the 200 µM working solutions were added to 95 µl of bacteria in culture media, leading to a final concentration of the compounds of 10 µM. 5 µl of H2O was added as a negative control. The tubes were incubated at 37°C for 15 min with shaking at 300 rpm. Subsequently, they were centrifuged at 8,000 x g for 5 min at 4 °C. The supernatant was aspirated and the pellet was washed with 0.01 M Tris-HCl before being resuspended in 200 µl of 0.01M Tris-HCl containing 0.5 M Sucrose, 150 µg/ml lysozyme, 10 mM EDTA and incubated at 37 °C overnight. These tubes were then centrifuged at 2,000 x g at 4°C for 10 min. The supernatant obtained represents the periplasm. The pellet containing spheroplasts was gently washed with 0.01 M Tris-HCl containing 0.5 M Sucrose and resuspended in 20 ml of B-PER™ Bacterial Protein Extraction Reagent (Thermo Fischer Scientific) for 1 h. After this, the spheroplasts were subjected to sonication (20kHz for 2×10 s), incubated on ice for 5 min and centrifuged at 20,000 x g for 30 min at 4 °C. The supernatant represents the cytoplasm. Both the periplasm and cytoplasm fragments were then mixed with 2, 6-Dihydroxyacetophenone (DHAP) in ACN 1:1, spotted on a MALDI plate and analyzed for MALDI-TOF-MS in a Bruker DaltonicsUltrafleXtreme Instrument. The experiment was performed two times and data of one representative experiment are shown.
As for “DNA-PTO: 10mer phosphorothioate-modified DNA antisense oligomer, sequence CTCATACTCT, targeting acpP (antisense dC*dT*dC*dA*dT*dA*dC*dT*dC*dT)”, the “Uptake inside bacteria (MS)” value was “-”.
The same measure, in the same setting: under “LNA: 10mer 2'-4'-locked RNA antisense oligomer, sequence CTCATACTCT, targeting acpP (all LNA, backbone and methylation of C not given here)” stands “-”.
On the same count and under the same terms, under “RNA-F: 10mer 2'-fluorinated RNA antisense oligomer, sequence CTCATACTCT, targeting acpP (all 2'-fluoro, backbone and T or U not given here)” stands “-”.
The same measure, in the same setting: under “RNA-MOE: 10mer 2'-methoxyethylated RNA antisense oligomer, sequence CTCATACTCT, targeting acpP (all 2'-MOE, backbone and methylation of C not given here)” stands “-”.
As for “RNA-OMe: 10mer 2'-methylated RNA antisense oligomer, sequence CTCATACTCT, targeting acpP (all 2'-O-methyl, backbone and T or U not given here)”, the “Uptake inside bacteria (MS)” value is given as “-”.

In a further series the test system is fabF (3-oxoacyl-[acyl carrier protein] synthase 2) transcript. The series can be described thus: RNA-seq, fabF transcript. Format: cell-based, Salmonella enterica serovar Typhimurium strain SL1344. The conditions noted are these: 5 µM KFF-ASO conjugate, 15 min. The protocol: RNA isolation was performed using previously published protocols ([30],[31]). Bacterial overnight cultures were diluted 1:100 in fresh MHB and grown to OD600 0.5. The cultures were diluted to approximately 10^6 cfu/ml in non-cation-adjusted MHB. Afterwards, an aliquot of the bacterial solution was transferred into 5 ml low-binding tubes (LABsolute) containing the ASOs solution (adjusted such that the final concentration was 5 μM for all tested compounds). As a negative control, cells were treated with the respective volume of sterile nuclease-free water, which was used as solvent for the ASOs. […]
Total RNA was purified from bacterial pellets using the miRNeasy Mini kit (Qiagen) according to protocol #3 described in ([30]). […] RNA concentration was measured with a NanoDrop spectrophotometer.
For transcriptomic analyses, RNA samples were processed and subjected to RNA-seq at Core Unit SysMed (University of Würzburg, Germany). […] Sequencing of pooled libraries, spiked with 5% PhiX control library, was performed at 10 million reads/sample in single-end mode with 75 nt read length on the NextSeq 500 platform (Illumina) using High output sequencing kits. […]
RNA-seq data analysis was performed similarly to our previous analysis of PNA activity in S. enterica ([30]). Briefly, adapters and low-quality bases (Phred quality score <10) of raw reads were trimmed using BBduk. […]
For the substance “PMO: 10mer phosphorodiamidate morpholino antisense oligomer, sequence CTCATACTCT, targeting acpP (all phosphorodiamidate morpholino (PMO))”, the fabF transcript level entry is recorded as “Reduction”.
Still for that read-out and setting: under “PNA: 10mer peptide nucleic acid antisense oligomer, sequence CTCATACTCT, targeting acpP (all peptide nucleic acid (PNA))” stands “Reduction”.
